Test results taken from patent US20070207946A1, “Dipeptidyl peptidase IV inhibitors and their uses for lowering blood pressure levels” (priority 2001, published 2007).
Like-named read-outs stand apart in the source and are kept apart here.

Key:
[1] = biological target: T1, plasma DPIV activity (Rattus norvegicus, UniProt P14740); assay: DPIV inhibiting activity after intravasal and oral administration to Wistar rats; format: in vivo; conditions: rat
T1 construct: from tissue; host or cells: plasma of Wistar rats
T1 sequence (P14740 38-767 limits assumed): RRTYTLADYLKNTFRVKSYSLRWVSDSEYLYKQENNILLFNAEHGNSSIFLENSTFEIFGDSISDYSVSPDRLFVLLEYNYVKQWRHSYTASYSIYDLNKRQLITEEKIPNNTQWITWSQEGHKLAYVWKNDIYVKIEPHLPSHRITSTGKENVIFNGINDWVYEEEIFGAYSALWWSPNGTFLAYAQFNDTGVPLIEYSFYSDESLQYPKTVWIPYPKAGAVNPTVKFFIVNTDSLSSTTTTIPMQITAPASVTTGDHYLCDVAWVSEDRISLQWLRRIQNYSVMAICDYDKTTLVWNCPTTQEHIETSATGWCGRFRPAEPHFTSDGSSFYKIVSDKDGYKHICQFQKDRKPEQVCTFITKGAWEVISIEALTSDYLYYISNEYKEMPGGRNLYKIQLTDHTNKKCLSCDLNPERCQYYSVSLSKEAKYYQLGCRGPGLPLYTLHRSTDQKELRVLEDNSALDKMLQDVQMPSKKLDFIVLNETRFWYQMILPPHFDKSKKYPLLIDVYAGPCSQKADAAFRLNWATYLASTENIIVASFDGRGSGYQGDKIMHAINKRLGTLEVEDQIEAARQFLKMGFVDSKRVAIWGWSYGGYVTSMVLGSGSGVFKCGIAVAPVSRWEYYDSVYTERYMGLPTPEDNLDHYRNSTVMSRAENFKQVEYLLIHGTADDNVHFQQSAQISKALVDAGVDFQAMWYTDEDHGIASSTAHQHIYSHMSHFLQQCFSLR
Method: Male Wistar rats (Shoe: Wist(Sho)) with a body weight ranging between 250 and 350 g were purchased from Tierzucht Schönwalde (Schönwalde, Germany).
Animals were single-caged under conventional conditions with controlled temperature (22±2° C.) on a 12/12 hours light/dark cycle (light on at 06:00 AM). Standard pelleted chow (ssniff® Soest, Germany) and tap water acidified with HCl were allowed ad libitum.
After ≧one week of adaptation at the housing conditions, catheters were implanted into the carotid artery of Wistar rats under general anaesthesia (i.p. injection of 0.25 ml/kg b.w. Rompun® [2%], BayerVital, Germany and 0.5 ml/kg b.w. Ketamin 10, Atarost GmbH & Co., Twistringen, Germany). The animals were allowed to recover for one week. The catheters were flushed with heparin-saline (100 IU/ml) three times per week. In case of catheter dysfunction, a second catheter was inserted into the contra-lateral carotid artery of the respective rat. After one week of recovery from surgery, this animal was reintegrated into the study. In case of dysfunction of the second catheter, the animal was withdrawn from the study. A new animal was recruited and the experiments were continued in the planned sequence, beginning at least 7 days after catheter implantation.
After overnight fasting, 100 μl samples of heparinised arterial blood were collected at −30, −5, and 0 min. […] In the case of oral administration, an additional volume of 1 ml saline was injected into the arterial catheter. In the case of infra-arterial administration, the catheter was immediately flushed with 30 μl saline and an additional 1 ml of saline was given orally via the feeding tube.
All blood samples were collected into ice cooled Eppendorf tubes (Eppendorf-Netheler-Hinz, Hamburg, Germany) filled with 10 μl 1M sodium citrate buffer (pH 3.0) for plasma DPIV activity measurement. Eppendorf tubes were centrifuged immediately (12000 rpm for 2 min, Hettich Zentrifuge EBA 12, Tuttlingen; Germany): The plasma fractions were stored on ice until analysis or were frozen at −20° C. until analysis. All plasma samples were labelled with the following data:
The assay mixture for determination of plasma DPIV activity consisted of 80 μl reagent and 20 μl plasma sample. […] The DPIV activity was expressed in mU/ml.
All parameters were analysed in a descriptive manner including mean and SD.

[2] = tested on: diabetic Zucker rats; assay: Dose escalation study in fatty Zucker rats, oral glucose tolerance test; format: in vivo, rat; conditions: 2 g/kg glucose
Method: N=30 male Zucker rats (fa/fa), mean age 11 weeks (5-12 weeks), mean body weight 350 g (150-400 g), were purchased from Charles River (Sulzfeld, Germany).
After delivery they were kept for >12 weeks until nearly all fatty Zucker rats had the characteristics of manifest diabetes mellitus. A group of N=8 animals were recruited for testing three escalating doses of glutaminyl pyrrolidine vs. placebo (saline).
Placebo (1 ml saline, 0.154 mol/l) or escalating doses of glutaminyl pyrrolidine (5, 15 and 50 mg/kg b.w.) were administered to groups of N=8 fatty Zucker rats. 375 mg of glutaminyl pyrrolidine were dissolved in 1000 μl DMSO (E. Merck, Darmstadt; Germany [Dimethyl sulfoxide p.a.]). 10 ml saline were added and 1 ml aliquots, each containing 34.09 mg of glutaminyl pyrrolidine, were stored at −20° C. For preparation of the test substance, dose dependent aliquots were diluted in saline.
After overnight fasting, placebo or test substance were administered to the fatty Zucker rats via feeding tube orally (15 G, 75 mm; Fine Science Tools, Heidelberg, Germany) at −10 min An oral glucose tolerance test (OGTT) with 2 g/kg b.w. glucose (40% solution, B. Braun Melsungen, Melsungen, Germany) was administered at ±0 min via a second feeding tube. Venous blood samples from the tail veins were collected at −30 min, −15 min, ±0 min and at 5, 10, 15, 20, 30, 40, 60, 90 and 120 min into 20 μl glass capillaries, which were placed in standard tubes filled with 1 ml solution for blood glucose measurement.
Glucose levels were measured using the glucose oxidase procedure (Super G Glucose analyzer; Dr. Müller Gerätebau, Freital, Germany).
Statistical evaluations and graphics were performed with PRISM® 3.02 (GraphPad Software, Inc.). All parameters were analysed in a descriptive manner including mean and SD.
After delivery they were kept for >12 weeks until nearly all fatty Zucker rats had the characteristics of manifest diabetes mellitus. […]
Glucose levels were measured using the glucose oxidase procedure (Super G Glucose analyzer; Dr. Möller Gerätebau, Freital, Germany).

SMILES: NC(=O)CCC(N)C(=O)N1CCCC1 (centres unmarked) [Gln-Pyrr, glutaminyl pyrrolidine]
- inhibition at 100 mg/kg ([1]; iv, intra-vasal (intra-arterial) route, read-out: in vivo DPIV-inhibition at tmax, i.v.): 80%
- inhibition at 100 mg/kg ([1]; oral, read-out: in vivo DPIV-inhibition at tmax, p.o.): 67%
- glucose tolerance (OGTT) ([2]; 5 mg/kg b.w. oral): limited improvement
- elevated blood glucose levels and glucose tolerance (OGTT) ([2]; 15 mg/kg oral): Significant lowering
- elevated blood glucose levels and glucose tolerance (OGTT) ([2]; 50 mg/kg b.w. oral): Significant lowering
